In data set [1] the test system is Pseudomonas aeruginosa PAO1. Kind of data set: Broth microdilution MIC, ESKAPE pathogens. The settings on record: strain not given (PAO1 and PA14 tested), LB, 37 °C, 24 h. It is filed as cell-based. As to the method:
Peptides were tested in antimicrobial assays against Serratia marcescens ATCC 4112, Enterobacter cloacae β-12, Micrococcus luteus A270, Bacillus megaterium ATCC 10778, Bacillus subtilis ATCC 6633, Candida albicans MDM8, Candida tropicalis IOC 4560, Acinetobacter baumannii ATCC 19606, Escherichia coli ATCC 11775, Escherichia coli AIC221, Escherichia coli AIC222, Klebsiella pneumoniae ATCC 13883, Staphylococcus aureus ATCC 12600, Pseudomonas aeruginosa PAO1, and Pseudomonas aeruginosa PA14. All microorganisms were obtained from the American Type Culture Collection (ATCC), Instituto Butantan, São Paulo, Brazil, and the clinical isolate strains were donated from the Oswaldo Cruz Institute Collection (IOC), Rio de Janeiro, Brazil.
The minimal inhibitory concentration (MIC) against the ESKAPE pathogens was determined using the broth microdilution method[7] in Luria-Bertani (LB) medium. The MIC value was defined as the lowest concentration of peptide at which no microbial growth was observed. A. baumannii ATCC 19606, E. coli ATCC 11775, E. coli AIC221, E. coli AIC222, K. pneumoniae ATCC 13883, S. aureus ATCC 12600 P. aeruginosa PAO1, and P. aeruginosa PA14 were incubated on agar plates, and after 24 h, three isolated colonies were inoculated to 5 mL of Luria-Bertani (LB) broth and maintained at 37 °C overnight with shaking. Peptides were then added to 96-well polystyrene microtiter plates at concentrations ranging from 0 to 128 μmol L^−1, and 5 × 10^5 CFU mL^−1 of each bacterium was inoculated in each well. The plates were incubated at 37 °C for 24 h. Bacterial growth was measured using a microplate reader at 610 nm. Three independent replicates were performed.
(In general: Dilution methods test growth across graded concentrations, often in twofold steps.)

The test system of a further data set is human erythrocytes. As to the kind of experiment: Hemolytic activity. It is filed as cell-based. The settings on record: 0.1–100 μmol L^−1 in PBS, room temperature, 1 h, absorbance 405 nm. The protocol: Assays against freshly collected human erythrocytes were performed following protocols described by Pedron et al.[54]. Briefly, peptide aliquots at concentrations ranging from 0.1 to 100 μmol L^−1 were incubated with a suspension of erythrocytes at room temperature for 1 h. The samples were then centrifuged, and the absorbance of the supernatant was measured at 405 nm. […] The surfactant SDS and PBS buffer were used as positive[81],[82] and negative controls, respectively. Sodium heparin was used as an anticoagulant when collecting human blood. Three biological repeats were performed. All experiments were performed in accordance with the protocol CEUA/IB #I-1345/15 approved by the Instituto Butantan.

Data set [2] in a line: Resistance to proteolytic degradation in fetal bovine serum. The class given is in vitro ADME. The note with it: 25% fetal bovine serum in water, 37 °C. As to the method:
Stability assays were performed following the protocol described by Torres et al.[67]. Briefly, a peptide solution was added to GIBCO fetal bovine serum diluted to 25% in water and kept at 37 °C. The degradation kinetics were monitored by liquid chromatography and the percentage of peptide remaining in each case was calculated by integrating the peptide peak area. These experiments were performed as three independent replicates, and aliquots were taken at 0, 0.5, 1, 2, 4, and 6 h.

The subject of data set [3] is MCF-7 human breast cancer cells. As to the kind of experiment: MTT assay, anticancer activity. It is filed as cell-based. The note with it: 37 °C; for MCF-7 4 h LD50: 4 h of incubation; for MCF-7 24 h LD50: 24 h of incubation. The protocol: The anticancer activity assays were performed using MCF-10A human breast epithelial cells and MCF-7 mammary cancer cells as previously described by Pedron et al.[78]. Briefly, the day before treatment, the cells were incubated at 37 °C and 5% CO2 for 24 h. The cells were treated with peptides ranging from 12.5 to 100 μmol L^−1 (MCF10-A cells) and 0.8 to 100 μmol L^−1 (MCF-7 cells) for 4 h and 24 h at 37 °C, and cell viability was measured using 3-(4,5-Dimethylthiazol-2-yl)-2,5-diphenyltetrazolium bromide (MTT) assays[79],[80]. Three independent replicates were performed in each case.
For orientation: Tetrazolium dyes change colour on reduction, which living cells bring about.

Data set [4] in a line: Mouse body weight in the skin abscess infection model. The class given is in vivo. The protocol: The anti-infective activity of the peptides VmCT1, temporin A, VT, and TV against A. baumannii ATCC 19606 was evaluated as described by Torres et al.[7],[83] Bacteria were grown in tryptic soy broth medium to an optical density of 0.5 at 600 nm. Cells were washed twice with sterile phosphate-buffered saline (pH 7.4, 13,000 rpm for 1 min) and resuspended to a final concentration of 1 × 10^7 CFU/20 μL. To generate the skin infection, female CD-1 mice (6-weeks-old) were first anesthetized with isoflurane and their backs were shaved. Using a needle, a superficial linear abrasion was made on the shaved area of the mice to injure just the stratum corneum and the upper layer of the epidermis. An aliquot of 20 μL containing 1 × 10^7 CFU of A. baumannii was then inoculated over the wound area with a pipette tip. The next day, the infected area was treated with the peptides (i.e., VmCT1, temporin A, VT, and TV), which were administered onto the abscess at their MIC. The animals were euthanized, and the scarified skin area removed 2- and 4-days post-infection. The excised area was homogenized using a bead beater for 20 min (25 Hz) and serially diluted for CFU quantification. Eight mice were used per group (n = 8). All experiments were performed in accordance with protocol 806763 approved by the IACUC at the University of Pennsylvania.

Where [5] appears, read: LC peak area, time 0 = 100, 0.5 h, replicate 1.
Setting [6] is: LC peak area, time 0 = 100, 0.5 h, replicate 2.
Where [7] appears, read: LC peak area, time 0 = 100, 0.5 h, replicate 3.
The mark [8] stands for this setting: LC peak area, time 0 = 100, 1 h, replicate 1.
The mark [9] stands for this setting: LC peak area, time 0 = 100, 1 h, replicate 2.
Setting [10] is: LC peak area, time 0 = 100, 1 h, replicate 3.
Where [11] appears, read: LC peak area, time 0 = 100, 2 h, replicate 1.
The mark [12] stands for this setting: LC peak area, time 0 = 100, 2 h, replicate 2.
The mark [13] stands for this setting: LC peak area, time 0 = 100, 2 h, replicate 3.
Setting [14] is: LC peak area, time 0 = 100, 4 h, replicate 1.
[15] abbreviates: LC peak area, time 0 = 100, 4 h, replicate 2.
Where [16] appears, read: LC peak area, time 0 = 100, 4 h, replicate 3.
[17] abbreviates: LC peak area, time 0 = 100, 6 h, replicate 1.
The mark [18] stands for this setting: LC peak area, time 0 = 100, 6 h, replicate 2.
[19] abbreviates: LC peak area, time 0 = 100, 6 h, replicate 3.

No end group written: not given here.

For the substance FLGTLWGGAKGVF-NH2 [VP], in data set [1], the “MIC against P. aeruginosa” value was found to be 128 µM. Moreover, the “Hemolytic activity (concentration of peptide needed to kill 10% of red blood cells)” value in the data set on human erythrocytes turned out to be 100 µmol/L. Further, the Peptide remaining is recorded as 24.2 in data set [2] (setting [5]); 22.1 in data set [2] (setting [6]); 20.2 in data set [2] (setting [7]); 14.7 in data set [2] (setting [8]); 16.0 in data set [2] (setting [9]); 11.8 in data set [2] (setting [10]). Moreover, the Peptide remaining was determined as 3.6 in data set [2] (setting [11]); 3.6 in data set [2] (setting [12]); 4.4 in data set [2] (setting [13]); 0.0 in data set [2] (setting [14]); 0.0 in data set [2] (setting [15]); 0.0 in data set [2] (setting [16]). Moreover, the Peptide remaining in data set [2] (setting [17]), in data set [2] (setting [18]) and in data set [2] (setting [19]) was 0.0 throughout.
As to “FLPLIGRVLSGIL-NH2 [Temporin A, reference compound]”, the “MCF-7 4 h LD50” value in data set [3] was determined as 50 µmol/L. In data set [3], the “MCF-7 24 h LD50” value stood at 50 µmol/L. Besides, the “Hemolytic activity (concentration of peptide needed to kill 10% of red blood cells)” value in the data set on human erythrocytes came to 0.2 µmol/L. For the same substance, in data set [2] (LC peak area vs time 0, 30 min, three replicates), the “Peptide remaining after 30 min” value is given as “totally degraded”. Also, the Peptide remaining in data set [2] (setting [5]), in data set [2] (setting [6]), in data set [2] (setting [8]), in data set [2] (setting [9]), in data set [2] (setting [10]) and in data set [2] (setting [11]) was 0 throughout. Also, the Peptide remaining in data set [2] (setting [12]), in data set [2] (setting [13]), in data set [2] (setting [14]), in data set [2] (setting [15]), in data set [2] (setting [16]) and in data set [2] (setting [17]) was 0 each time. The Peptide remaining in data set [2] (setting [18]) and in data set [2] (setting [19]) was 0 each time. Further, the fraction remaining (in general, the share of the starting amount still present when the sample was taken) at 0.5 h in data set [2] (fetal bovine serum, 25% in water, LC peak area, time 0 = 100, 0.5 h, replicate 3, read-out: Peptide remaining) was found to be 0%. Also, the “Mouse body weight, normalized to the weight at the beginning of the experiment” value is recorded as 95 in data set [4] (day 0 = 100, Day 1, replicate 1); 105 in data set [4] (day 0 = 100, Day 1, replicate 2); 100 in data set [4] (day 0 = 100, Day 1, replicate 3); 95 in data set [4] (day 0 = 100, Day 2, replicate 1); 100 in data set [4] (day 0 = 100, Day 2, replicate 2); 100 in data set [4] (day 0 = 100, Day 2, replicate 3). Also, the “Mouse body weight, normalized to the weight at the beginning of the experiment” value in data set [4] (day 0 = 100, Day 3, replicate 1) was found to be 95; in data set [4] (day 0 = 100, Day 3, replicate 2), 100; in data set [4] (day 0 = 100, Day 3, replicate 3), 95; in data set [4] (day 0 = 100, Day 4, replicate 1), 95; in data set [4] (day 0 = 100, Day 4, replicate 2), 100; in data set [4] (day 0 = 100, Day 4, replicate 3) it was 95.
For the substance ILGAILNVLKSLG-NH2 [PV], the “MIC against P. aeruginosa” value in data set [1] was 128 µM. Moreover, in the data set on human erythrocytes, the “Hemolytic activity (concentration of peptide needed to kill 10% of red blood cells)” value was found to be 25 µmol/L. Further, the “Peptide remaining after 1 h” value in data set [2] (LC peak area vs time 0, 1 h, three replicates) is on record as “totally degraded”. Further, the Peptide remaining in data set [2] (setting [5]) was 98; in data set [2] (setting [6]) it was 85; in data set [2] (setting [7]) it was 88; in data set [2] (setting [8]) it was 0; in data set [2] (setting [9]) it was 0; in data set [2] (setting [10]) it was 0. Besides, the Peptide remaining in data set [2] (setting [11]), in data set [2] (setting [12]), in data set [2] (setting [13]), in data set [2] (setting [14]), in data set [2] (setting [15]) and in data set [2] (setting [16]) was 0 each time. Besides, the Peptide remaining in data set [2] (setting [17]), in data set [2] (setting [18]) and in data set [2] (setting [19]) was 0 in each case.
Take “ILGTILGLLKGL-NH2 [Protonectin, reference compound]”: the “MIC against P. aeruginosa” value in data set [1] was found to be 128 µM. Also, the “MCF-7 4 h LD50” value in data set [3] came out at 25 µmol/L. Also, in data set [3], the “MCF-7 24 h LD50” value was determined as 25 µmol/L. The “Hemolytic activity (concentration of peptide needed to kill 10% of red blood cells)” value in the data set with human erythrocytes worked out at 12.5 µmol/L. For the same substance, the Peptide remaining in data set [2] (setting [5]), in data set [2] (setting [6]), in data set [2] (setting [7]), in data set [2] (setting [9]), in data set [2] (setting [10]) and in data set [2] (setting [11]) was 0.0 each time. Besides, the Peptide remaining in data set [2] (setting [12]), in data set [2] (setting [13]), in data set [2] (setting [14]), in data set [2] (setting [15]), in data set [2] (setting [16]) and in data set [2] (setting [17]) was 0.0 in each case. Further, the Peptide remaining in data set [2] (setting [18]) and in data set [2] (setting [19]) was 0.0 in each case. In addition, the “Degradation in fetal bovine serum (in words)” value in data set [2] (exposure for 6 h, LC) is “quickly degraded”. Moreover, the share remaining at 1 h in data set [2] (fetal bovine serum, 25% in water, LC peak area, time 0 = 100, 1 h, replicate 1, read-out: Peptide remaining) was 0%.

For the origin of these results see article PMC10587126, “Molecular hybridization strategy for tuning bioactive peptide function” (Communications Biology, 2023).
